From patent US20060079568A1, “Inhibition of atherosclerosis by diindolylmethane analogs” (The Texas A&M University System, priority 2004, published 2006)
“Also recorded” adds a separate entry of the source.

Key:
[1] = test system: HUVECs; test: Treatment of unstimulated HUVECs: apoptosis and baseline ICAM-1 expression; details: up to 10 μmol/L, HUVECs without TNF-α (data not shown)
[2] = test system: IL-6; test: IL-6 production in supernatants of TNF-α-stimulated HUVECs, ELISA; assay type: cell-based, human; details: for IL-6 level in supernatant after TNF-α stimulation: 10 μmol/L pretreatment 6 hours, then 5 ng/ml TNF-α 6 hours, TNF-α alone 228±12.7, baseline 52.8±7.5; for effect on TNF-α-induced IL-6 production (in words): 10 μmol/L pretreatment, 5 ng/ml TNF-α
Procedure: (§1) In order to measure chemokine levels in the cell supernatant, HUVECs cultured in 24-well plates were preincubated for 6 hours with one of the three p-substituted phenyl DIM analogs at the concentrations indicated or with vehicle and then stimulated with 5 ng/ml TNF-α. For comparison, HUVECs were also preincubated with ciglitazone or 15d-PGJ2 at the same concentrations and then stimulated with TNF-α at a concentration of 5 ng/ml. Cell culture supernatants were collected 6 and 24 hours after the stimulation for analysis of IL-6 and MCP-1, respectively.
(§2) The levels of IL-6 and MCP-1 were quantified using commercial ELISA kits (BioSource International, Camarillo, Calif.) according to the manufacturer's directions. The minimum detectable concentration of the assay was 2 pg/ml for IL-6 and <20 pg/ml for MCP-1. All experiments were performed in triplicate.
(§3) To determine the effects of the three p-substituted phenyl DIM analogs on TNF-α-induced chemokine production in HUVECs, cells were pretreated for 6 hours with one of the three analogs at the concentrations indicated or with vehicle and then stimulated with 5 ng/ml TNF-α for the indicated time before the chemokine assays were performed.

[3] = test system: ICAM-1; test: TNF-α-induced cell surface expression of ICAM-1 in HUVECs measured by FACS; assay type: cell-based, human; details: then 5 ng/ml TNF-α; for effect on TNF-α-induced ICAM-1 expression (in words): pretreatment 6 hours (up to 10 μmol/L); for reduction of TNF-α-induced ICAM-1 expression: 10 μmol/L pretreatment 6 hours, vs TNF-α-stimulated control cells
Procedure: The expression of ICAM-1 on the cell surface was determined in HUVECs cultured in six-well plates pretreated with one of the three different p-substituted phenyl DIM analogs or with vehicle (0.1% DMSO) at the concentrations indicated. Their effects were compared with those of other PPARγ agonists by preincubating HUVECs with ciglitazone (Biomol, Plymouth meeting, Pa.) or 15d-PGJ2 (Calbiochem, San Diego, Calif.) at the same doses.
After 6 hours, cells were incubated with TNF-α (R&D Systems, Minneapolis, Minn.) at a concentration of 5 ng/ml for 12 hours. Cells were then detached with 10 mmol/L EDTA in 0.5% phosphate-buffered saline, collected by centrifugation, and stained for 30 minutes on ice in the dark with R-phycoerythrin-labeled monoclonal antibody against ICAM-1 (CD54) or with the appropriate R-phycoerythrin-labeled isotype IgG (Pharmingen, San Diego, Calif.) as a control.
The fluorescence intensity of 10,000 gated viable cells was analyzed for each sample on a FACSCalibur Flow Cytometer (Becton Dickinson Immunocytometry Systems, San Diego, Calif.) using Cell Quest (Becton Dickinson) acquisition software. All experiments were performed in triplicate.

[4] = test system: MCP-1; test: MCP-1 production in supernatants of TNF-α-stimulated HUVECs, ELISA; assay type: cell-based, human; details: for effect on TNF-α-induced MCP-1 production (in words): 10 μmol/L pretreatment, 5 ng/ml TNF-α; for MCP-1 level in supernatant after TNF-α stimulation: 10 μmol/L pretreatment 6 hours
Procedure: as §1, §2, §3

[5] = biological target: T1, PPAR-γ (Homo sapiens, UniProt P37231); details: earlier structure-activity studies [5]; cited from earlier work
T1 sequence (P37231 1-505): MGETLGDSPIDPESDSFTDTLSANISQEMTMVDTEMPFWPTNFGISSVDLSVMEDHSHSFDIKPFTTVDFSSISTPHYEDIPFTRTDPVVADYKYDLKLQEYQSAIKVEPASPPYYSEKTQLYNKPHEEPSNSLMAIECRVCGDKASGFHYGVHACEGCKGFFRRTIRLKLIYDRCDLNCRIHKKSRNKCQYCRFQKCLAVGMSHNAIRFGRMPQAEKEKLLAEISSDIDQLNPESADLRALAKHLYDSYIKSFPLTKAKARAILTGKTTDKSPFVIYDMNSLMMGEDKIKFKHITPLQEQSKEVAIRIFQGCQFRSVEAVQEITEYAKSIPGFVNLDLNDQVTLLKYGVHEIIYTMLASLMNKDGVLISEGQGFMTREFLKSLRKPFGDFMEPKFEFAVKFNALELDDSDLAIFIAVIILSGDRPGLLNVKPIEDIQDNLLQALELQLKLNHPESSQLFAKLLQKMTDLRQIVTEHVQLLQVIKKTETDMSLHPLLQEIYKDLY

[6] = then 5 ng/ml TNF-α 24 hours, TNF-α alone 7.8±0.19, baseline 1.05±0.07

Row | Structure (SMILES) | induction of apoptosis [1] | IL-6 level in supernatant after TNF-α stimulation [2] [pg/mL] | effect on TNF-α-induced IL-6 production (in words) [2] | effect on TNF-α-induced ICAM-1 expression (in words) [3] | effect on TNF-α-induced MCP-1 production (in words) [4] | reduction of TNF-α-induced ICAM-1 expression [3] [%] | PPAR-γ agonist activity [5] | MCP-1 level in supernatant after TNF-α stimulation [4, 6] [ng/mL] | change of baseline expression of ICAM-1 [1] | MCP-1 level in supernatant after TNF-α stimulation ([4]; then 5 ng/mL TNF-α, comparison agonists) [ng/mL]
1 | CC1(COc2ccc(CC3SC(=O)NC3=O)cc2)CCCCC1 (stereo not shown) [ciglitazone, reference compound] | did not induce apoptosis | 207 ± 13 | inactive | inactive; also recorded: no inhibitory effect | inactive |  |  |  |  | 
2 | Cc1ccc(C(c2c[nH]c3ccccc23)c2c[nH]c3ccccc23)cc1 [DIM-C-pPhCH3] |  |  | lower activity; also recorded: did not decrease; also recorded: did not significantly inhibit | lower activity; also recorded: inactive | lower activity; also recorded: did not decrease; also recorded: did not affect | 32 | less active; also recorded: low PPAR-γ agonist activity; also recorded: relatively inactive |  |  | 
3 | c1ccc(-c2ccc(C(c3c[nH]c4ccccc34)c3c[nH]c4ccccc34)cc2)cc1 [DIM-C-pPhC6H5, 1,1-bis(3′-indolyl)-1-(p-biphenyl) methane] |  | 143.4 ± 12.2 | inhibited | inhibited; also recorded: decreased | inhibited | 71.3 | potent; also recorded: active agents | 2.2 ± 0.49 |  | 
4 | CCCCC/C=C/C=C1/C(=O)C=C[C@@H]1C/C=C\CCCC(=O)O [15d-PGJ2, 15-deoxy-δ^12,14-prostaglandin J2, reference compound] |  | 29.8 ± 1.6 | significantly inhibited | significantly inhibited; also recorded: decreased | significantly inhibited | 84.4 |  |  | did not induce apoptosis or change the baseline expression of ICAM-1 | 1.5 ± 0.3
5 | CC(C)(C)c1ccc(C(c2c[nH]c3ccccc23)c2c[nH]c3ccccc23)cc1 [DIM-C-pPhtBu, 1,1-bis(3′-indolyl)-1-(p-t-butylphenyl) methane] |  | 130.3 ± 19.3 | inhibited | inhibited; also recorded: decreased the expression of ICAM-1 in a concentration-dependent manner | inhibited | 77.5 | potent; also recorded: active agents | 3.9 ± 0.41 |  | 
